Data set [1] concerns Duroc×Landrace×Yorkshire cross-bred bacon-type piglets. The experiment in a line: Effect on the production performance of hogs (14-day feeding trial). It is filed as in vivo. The note with it: 25 ppm in feed; for ADFI (average daily feed intake) / ADG (average daily weight gain) / FCR (feed conversion ratio): 14 days, piglets. The text has this:
480 67-day-old Duroc×Landrace×Yorkshire cross-bred bacon-type piglets with similar body weight, were randomly divided into 16 groups, with 3 replications per group, 10 piglets per replication and equal amounts of males and females. The pig pen and tools were sterilized before the trial. In the trial, the piglets were kept in separate regions in the same pig pen under the same feeding and management conditions, were given a free hand with the feed and the water, and were fed twice a day. The groups were known as control group (group 1) and test groups 2 to 16. The piglets of the control group were fed with basal formula feed only, while those of the test groups 2 to 16 were respectively fed with basal formula feed mixed with different additives, wherein the active ingredient of the additives was a hexahydro-β-acid compound or a prodrug of a hexahydro-β-acid compound provide herein, and the content thereof in the feed was 5 or 25 ppm as shown in Table 4.
The trial lasted for 14 days. During the trial, each test group was not fed with other antioxidants or growth enhancers. On the 14th day, each test group was fed with no feed but water for 12 hours, and the piglets of each replication as one unit were weighed to calculate the average daily feed intake (ADFI, g/d per piglet), the average daily weight gain (ADG, g/d per piglet), and the feed conversion ratio (FCR). Average daily feed intake=(Total weight of provided feed−Weight of residual feed)/(Days of the trial×Number of piglets in each replicate) Average daily weight gain=(final average body weight−initial average body weight)/Days of the trial Feed conversion ratio=average daily feed intake/average daily weight gain

Data set [2] in a line: Long-term stability in feeds at room temperature (25° C.±2° C., RH 60%±10%; HPLC). As to conditions: for stability / content in feeds at room temperature (in words): during the testing period. It is filed as physicochemical. The text has this:
Feeds: ZUSF's premixed feed (A mixture of crushed Feed A and crushed Feed B at a weight ratio of 2:1, wherein Feed A was a 5.33% multi-premixed feed for piglets from ZUSF's Hao-Ru-Zhen-Jing, and B was a 2.67% multi-premixed feed for piglets from ZUSF's Hao-Ru-Zhen-Jing); creep feed for piglets from CP FEED; INSIGHTER's feed for broiler; 4% premixed feed from GUANGDONG CO-POWER.
Preparation of a sample of 1% premix of Ingredient: 1 g of an ingredient was respectively weighed out and evenly mixed with 99 g of corncob meal in a mixer to give a sample of 1% premix of an ingredient.
Preparation of a sample of 500 ppm feed of an ingredient: The sample of 1% premix of an ingredient was diluted step by step using the ZUSF's remixed feed to 5000 ppm and 500 ppm to give the sample of 500 ppm feed of an ingredient for later testing.
Preparation of a sample of 100 ppm feed of an ingredient: sample of 1% premix of an ingredient was diluted step by step using the creep feed for piglets from CP FEED to 1000 ppm and then 100 ppm to give the sample of 100 ppm feed of an ingredient for later testing.
Preparation of a sample of 100 ppm feed of an ingredient: The sample of 1% premix of an ingredient was diluted step by step using the INSIGHTER's feed for broiler to 1000 ppm and 100 ppm to give the sample of 100 ppm feed of an ingredient for later testing.
Preparation of a sample of 2000 ppm feed of an ingredient: The sample of 1% premix of an ingredient was diluted step by step using the 4% premixed feed from GUANGDONG CO-POWER to 5000 ppm and 2000 ppm to give the sample of 2000 ppm feed of an ingredient for later testing.
Method: Three replications of each feed sample were tested at the condition of 25° C.±2° C. and RH 60%±10%, wherein the replications of each feed sample were sampled in parallel for HPLC analysis on day 5, day 10, day 15, day 30, day 60, and day 90.
25.0 mg of an ingredient was accurately weighed out and dissolved in an appropriate amount of methanol or n-hexane by ultrasonication. The solution was then transferred to a volumetric flask and diluted to 50 mL to give a 500 ppm (by wt.) stock solution. The samples from the stock solution were diluted with methanol or n-hexane respectively to a concentration of 10 ppm, 25 ppm, 50 ppm, 100 ppm, and 250 ppm of work solution, and then the working solutions were filtered by 0.22 μm organic membranes. Between the concentration of a sample and the response value of HPLC peak area thereof, the linearity was adjusted and detected to give a standard curve.
5.0000 g of the samples sampled at different time intervals were respectively accurately weighed out, and dissolved in 25 mL of methanol or n-hexane by ultrasonication for 10 minutes. The resulting solutions were filtered by organic membranes and then analyzed by HPLC.
• Equipment: Waters e2695 with PDA detector. • Mobile phase: 0.02% phosphoric acid:methanol=5:95 (v:v). • Column: Symmetry Cis column (Waters; 250 mm×4.6 mm, 5 μm). • Wavelength: 235 nm. • Temperature of the Column: 25° C. • Injection volume: 10 μL. • Flow rate: 1 mL/min. Normal Phase Chromatography: • Equipment: Shimadzu LC-14C/SPD-15C. • Column: SuperSil NH2 column ([…]; 250 mm×4.6 mm). • Mobile phase: n-hexane:isopropanol=60:40 (v:v). • Wavelength: 235 nm. • Temperature of the Column: 25° C. • Injection volume: 20 μL. • Flow rate: 1 mL/min. 3: Results

[3] abbreviates: 100 ppm in INSIGHTER's broiler feed, Day 5.
Setting [4] is: 100 ppm in INSIGHTER's broiler feed, Day 15.
[5] abbreviates: 100 ppm in INSIGHTER's broiler feed, Day 30.
[6] abbreviates: 100 ppm in INSIGHTER's broiler feed, Day 60.
Setting [7] is: 100 ppm in INSIGHTER's broiler feed, Day 90.
Setting [8] is: 100 ppm in creep feed for piglets from CP FEED, Day 5.
The mark [9] stands for this setting: 100 ppm in creep feed for piglets from CP FEED, Day 15.
Setting [10] is: 100 ppm in creep feed for piglets from CP FEED, Day 30.
The mark [11] stands for this setting: 100 ppm in creep feed for piglets from CP FEED, Day 60.
Where [12] appears, read: 100 ppm in creep feed for piglets from CP FEED, Day 90.
[13] abbreviates: 500 ppm in ZUSF's premixed feed, Day 15.
Where [14] appears, read: 500 ppm in ZUSF's premixed feed, Day 30.
[15] abbreviates: 500 ppm in ZUSF's premixed feed, Day 60.
The mark [16] stands for this setting: 500 ppm in ZUSF's premixed feed, Day 90.

Experimental findings from US12673915B2, “Precursor compound of hexahydro-beta-acid component compound, feed composition and use thereof” (WISORIG TECHNOLOGIES PTE. LIMITED, priority 2020, dated 2026) are described below.

`CCCC(=O)OC1=C(CCC(C)C)C(=O)C(CCC(C)C)(CCC(C)C)C(O)=C1C(=O)C(C)CC` (centres unmarked) [Hexahydro-adlupulone mono-butyrate, hexahydro-adlupulone mono-butyrate]: in data set [1], the “ADFI (average daily feed intake)” value is 883 g/d per piglet, the “ADG (average daily weight gain)” value turned out to be 398 g/d per piglet and the “FCR (feed conversion ratio)” value is recorded as 2.221.

In the case of `CCC(=O)OC1=C(CCC(C)C)C(=O)C(CCC(C)C)(CCC(C)C)C(O)=C1C(=O)C(C)CC` (centres unmarked) [Hexahydro-adlupulone mono-propionate, hexahydro-adlupulone mono-propionate], in data set [1], the “ADFI (average daily feed intake)” value was determined as 876 g/d per piglet, the “ADG (average daily weight gain)” value was 393 g/d per piglet and the “FCR (feed conversion ratio)” value is 2.228.

For `CCC(C)C(=O)C1=C(O)C(CCC(C)C)(CCC(C)C)C(=O)C(CCC(C)C)=C1O` (centres unmarked) [Hexahydro-adlupulone, reference compound], in data set [1], the “ADFI (average daily feed intake)” value is 860 g/d per piglet, the “ADG (average daily weight gain)” value came to 384 g/d per piglet and the “FCR (feed conversion ratio)” value was 2.240.

`CCCC(=O)OC1=C(CCC(C)C)C(=O)C(CCC(C)C)(CCC(C)C)C(OC(=O)CCC)=C1C(=O)C(C)C` [Hexahydro-colupulone di-butyrate, hexahydro-colupulone di-butyrate]: in data set [1], the “ADFI (average daily feed intake)” value is recorded as 950 g/d per piglet, the “ADG (average daily weight gain)” value is reported as 413 g/d per piglet and the “FCR (feed conversion ratio)” value is 2.298.

Turning to `CCC(=O)OC1=C(CCC(C)C)C(=O)C(CCC(C)C)(CCC(C)C)C(OC(=O)CC)=C1C(=O)C(C)C` [Hexahydro-colupulone di-propionate, hexahydro-colupulone di-propionate], in data set [1], the “ADFI (average daily feed intake)” value is given as 926 g/d per piglet, the “ADG (average daily weight gain)” value is 415 g/d per piglet and the “FCR (feed conversion ratio)” value is given as 2.231.

On to `CCCCCCCCCCCC(=O)OC1=C(CCC(C)C)C(=O)C(CCC(C)C)(CCC(C)C)C(O)=C1C(=O)C(C)C` [hexahydro-colupulone mono-laurate], for which the “Residual amount of active ingredient” value in data set [2] (setting [3]) worked out at 99.63%; in data set [2] (setting [4]), 99.65%; in data set [2] (setting [5]) it was 99.68%; in data set [2] (setting [6]), 98.68%; in data set [2] (setting [7]), 98.47%; in data set [2] (1000 ppm in INSIGHTER's broiler feed, Day 5), 101.19%. The “Residual amount of active ingredient” value is given as 101.72% in data set [2] (1000 ppm in INSIGHTER's broiler feed, Day 15); 98.60% in data set [2] (1000 ppm in INSIGHTER's broiler feed, Day 30); 97.85% in data set [2] (1000 ppm in INSIGHTER's broiler feed, Day 60); 95.26% in data set [2] (1000 ppm in INSIGHTER's broiler feed, Day 90). Moreover, the “effects on the performance of piglets compared with mono-acetate and mono-butyrate (in words)” value in data set [1] is given as “not as significant”. The “ADFI (average daily feed intake)” value in data set [1] turned out to be 918 g/d per piglet. In data set [1], the “ADG (average daily weight gain)” value was determined as 383 g/d per piglet. Also, the “FCR (feed conversion ratio)” value in data set [1] is given as 2.399.

As for “disodium salt of hexahydro-colupulone mono-phosphate [reference compound]”, the “Residual amount of active ingredient” value in data set [2] (setting [3]) stood at 86.64%; in data set [2] (setting [4]), 83.77%; in data set [2] (setting [5]) it was 81.32%; in data set [2] (setting [6]) it was 76.53%; in data set [2] (setting [7]), 62.97%; in data set [2] (setting [8]), 66.59%. For the same compound, the “Residual amount of active ingredient” value came to 58.39% in data set [2] (setting [9]), 55.80% in data set [2] (setting [10]), 47.76% in data set [2] (setting [11]) and 44.33% in data set [2] (setting [12]).

For hexahydro-colupulone mono-hexanoate, the “Residual amount of active ingredient” value stood at 98.90% in data set [2] (setting [3]); 97.72% in data set [2] (setting [4]); 96.58% in data set [2] (setting [5]); 95.77% in data set [2] (setting [6]); 102.18% in data set [2] (setting [8]); 96.14% in data set [2] (setting [9]). In addition, the “Residual amount of active ingredient” value in data set [2] (setting [10]) is recorded as 95.30%; in data set [2] (setting [11]) it was 95.20%; in data set [2] (setting [12]) it was 95.55%; in data set [2] (setting [13]), 87.50%; in data set [2] (setting [14]), 89.00%; in data set [2] (setting [15]) it was 86.07%. Further, the “Residual amount of active ingredient” value in data set [2] (setting [16]) turned out to be 83.77%. Moreover, the “stability / content in feeds at room temperature (in words)” value in data set [2] is given as “relatively poor in some of the feeds”. Besides, the “effects on the performance of piglets compared with mono-acetate and mono-butyrate (in words)” value in data set [1] is “not as significant”. For the same compound, the “ADFI (average daily feed intake)” value in data set [1] turned out to be 913 g/d per piglet. In addition, the “ADG (average daily weight gain)” value in data set [1] is listed as 383 g/d per piglet. The “FCR (feed conversion ratio)” value in data set [1] worked out at 2.386.

hexahydro-colupulone mono-pentanoate: the “Residual amount of active ingredient” value in data set [2] (setting [3]) is given as 98.84%; in data set [2] (setting [4]), 98.12%; in data set [2] (setting [5]), 97.73%; in data set [2] (setting [6]), 96.64%; in data set [2] (setting [8]), 100.94%; in data set [2] (setting [9]), 98.82%. Further, the “Residual amount of active ingredient” value stood at 96.92% in data set [2] (setting [10]); 96.01% in data set [2] (setting [11]); 95.61% in data set [2] (setting [12]); 94.29% in data set [2] (setting [13]); 94.80% in data set [2] (setting [14]); 88.17% in data set [2] (setting [15]). In addition, in data set [2] (setting [16]), the “Residual amount of active ingredient” value came out at 89.14%. Also, in data set [2], the “stability / content in feeds at room temperature (in words)” value is given as “relatively poor in some of the feeds”.
